Data taken from US20110110930A1, “Mitogen-Activated Protein Kinase Kinase Kinase 14 (MAP3K14) Polymorphisms As Indicators of Subject Outcome in Critically Ill Subjects” (priority 2007, published 2011).
“Also recorded” adds a separate entry of the source.

Test system: ICU subjects with severe sepsis
Assay: Response to steroids in ICU severe sepsis subjects by MAP3K14 rs7222094 genotype (28-day survival, days alive and free of organ dysfunction)
Type: in vivo, human
Details: for SURV (28-Day Survival): % (N survived); for Delta SURV (28-Day Survival): treat (steroid-treated) minus cont (steroid untreated controls), difference of % survival; for Delta COAG.DAF (Days alive and free of coagulation dysfunction) / Delta CVS.DAF (Days alive and free of cardiovascular dysfunction) / Delta DA (Days alive) / Delta INR.DAF (Days alive and free of international normalized ratio >1.5) / Delta LIVER.DAF (Days alive and free of any type of hepatic dysfunction) / Delta PRESS.DAF (Days alive and free of any vasopressors) / Delta RENAL.DAF (Days alive and free of any type of renal dysfunction) / Delta RENSUP.DAF (Days alive and free of renal support) / Delta RESP.DAF (Days alive and free of respiratory dysfunction) / Delta VENT.DAF (Days alive and free of mechanical ventilators): treat minus cont (steroid untreated controls), difference of medians
Method: All subjects admitted to the ICU of St. Paul's Hospital (SPH) were screened for study inclusion. SPH ICU is a mixed medical-surgical ICU in a tertiary care, university-affiliated teaching hospital. Subjects were included in the study if they met at least two out of four SIRS criteria: 1) fever (>38° C.) or hypothermia (<36° C.), 2) tachycardia (>90 beats/minute), 3) tachypnea (>20 breaths/minute), PaCO2<32 mm Hg, or need for mechanical ventilation, and 4) leukocytosis (total leukocyte count>12,000 mm^3) or leukopenia (<4,000 mm^3). Subjects were included in the analysis if they met the diagnostic criteria for septic shock (sepsis and cardiovascular dysfunction (as defined by Brussels scoring system) and one other organ dysfunction) on admission to the ICU. Subjects were excluded if blood could not be obtained for genotype analysis. Baseline characteristics (age, gender, admission APACHE II score (KNAUS W A. et al. Crit. Care Med. (1985) 13:818-829), together with medical vs. surgical diagnosis KNAUS W A. et al. Chest (1991) 100:1619-1636) were recorded on admission to the ICU. The full cohort meeting these criteria included 1072 Caucasian subjects and 153 Asian subjects.
The primary outcome variable evaluated in this study was 28-day mortality. Various organ dysfunctions were considered as secondary outcome variables. Baseline demographics recorded were age, gender, admission APACHE II score (KNAUS W A. et al. Crit. Care Med (1985) 13:818-829), and medical or surgical diagnosis on admission to the ICU (based on the APACHE III diagnostic codes) (KNAUS W A. et al. Chest (1991) 100:1619-1636) (TABLE 2B).
After meeting the inclusion criteria, data were recorded for each 24-hour period (8 am to 8 am) for 28-days after ICU admission or until hospital discharge to evaluate organ dysfunction, the intensity of SIRS (Systemic Inflammatory Response Syndrome) and sepsis. Raw clinical and laboratory variables were recorded using the worst or most abnormal variable for each 24-hour period with the exception of Glasgow Coma Score, for which the best possible score for each 24-hour period was recorded. Missing data on the date of admission was assigned a normal value and missing data after day one was substituted by carrying forward the value from the previous day. When data collection for each patient was complete, all patient identifiers were removed from all records and the patient file was assigned a unique random number linked with the blood samples. The completed raw data file was used to calculate descriptive and severity of illness scores using standard definitions as described below.
Organ dysfunction was first evaluated at baseline and then daily using the Brussels score (SIBBALD W J. and VINCENT J L. Chest (1995) 107(2):522-7) (see TABLE 2A in General Methods Section). If the Brussels score was moderate, severe, or extreme dysfunction then organ dysfunction was recorded as present on that day. To correct for deaths during the observation period, we calculated the days alive and free of organ dysfunction (RUSSELL J A. et al. Crit. Care Med (2000) 28(10):3405-11 and BERNARD G R. et al. Chest (1997) 112(1):164-72) (TABLE 2C). For example, the severity of cardiovascular dysfunction was assessed by measuring days alive and free of cardiovascular dysfunction over a 28-day observation period. Days alive and free of cardiovascular dysfunction was calculated as the number of days after inclusion that a patient was alive and free of cardiovascular dysfunction over 28-days. Thus, a lower score for days alive and free of cardiovascular dysfunction indicates more cardiovascular dysfunction. The reason that days alive and free of cardiovascular dysfunction is preferable to simply presence or absence of cardiovascular dysfunction is that severe sepsis has a high acute mortality so that early death (within 28-days) precludes calculation of the presence or absence of cardiovascular dysfunction in dead subjects. […]

[1] = steroid-treated, rs7222094 TT (N = 74), Table 4.3 25th percentile/median/75th percentile, Table 4.5 median

hydrocortisone [steroids]
worse survival of steroid-treated than untreated subjects (rs7222094 CC subjects, p=0.02023, Pearson's Chi-square): 15%
28-day survival and organ dysfunction compared to controls (in words) (steroid-treated subjects with rs7222094 CC): lower 28-day survival and more organ dysfunction than controls; also recorded: decreases 28-day survival
28-day survival and organ function compared to controls (in words) (steroid-treated subjects with rs7222094 TT): increased survival and improved organ function; also recorded: improved compared with controls
SURV (28-Day Survival) (steroid-treated, genotypes Combined (N = 355)): 57% (203)
SURV (28-Day Survival) (steroid-treated, rs7222094 CC (N = 122)): 45% (55)
RENAL.DAF (Days alive and free of any type of renal dysfunction) (steroid-treated, rs7222094 CC (N = 122), Table 4.3 25th percentile/median/75th percentile, Table 4.5 median): 0 days
SURV (28-Day Survival) (steroid-treated, rs7222094 TC (N = 159)): 59% (94)
DA (Days alive) [1]: 28 days
INR.DAF (Days alive and free of international normalized ratio >1.5) [1]: 27 days
LIVER.DAF (Days alive and free of any type of hepatic dysfunction) [1]: 28 days
Delta SURV (28-Day Survival) (rs7222094 CC): −15.0
Delta SURV (28-Day Survival) (rs7222094 TC): −7.0
Delta SURV (28-Day Survival) (rs7222094 TT): 3.0
Delta COAG.DAF (Days alive and free of coagulation dysfunction) (rs7222094 CC): -11.5 days
Delta CVS.DAF (Days alive and free of cardiovascular dysfunction) (rs7222094 CC): -1.0 days
Delta DA (Days alive) (rs7222094 CC): -5.0 days
Delta INR.DAF (Days alive and free of international normalized ratio >1.5) (rs7222094 CC): -6.0 days
Delta LIVER.DAF (Days alive and free of any type of hepatic dysfunction) (rs7222094 CC): -6.5 days
Delta PRESS.DAF (Days alive and free of any vasopressors) (rs7222094 CC): -11.0 days
Delta RENAL.DAF (Days alive and free of any type of renal dysfunction) (rs7222094 CC): -4.0 days
Delta RENSUP.DAF (Days alive and free of renal support) (rs7222094 CC): -9.0 days
Delta RESP.DAF (Days alive and free of respiratory dysfunction) (rs7222094 CC): -12.0 days
Delta VENT.DAF (Days alive and free of mechanical ventilators) (rs7222094 CC): -11.0 days
Delta COAG.DAF (Days alive and free of coagulation dysfunction) (rs7222094 TC): -3.0 days
Delta CVS.DAF (Days alive and free of cardiovascular dysfunction) (rs7222094 TC): -0.5 days
Delta DA (Days alive) (rs7222094 TC): 0.0 days
Delta INR.DAF (Days alive and free of international normalized ratio >1.5) (rs7222094 TC): -1.0 days
Delta LIVER.DAF (Days alive and free of any type of hepatic dysfunction) (rs7222094 TC): 0.0 days
Delta PRESS.DAF (Days alive and free of any vasopressors) (rs7222094 TC): -7.0 days
Delta RENAL.DAF (Days alive and free of any type of renal dysfunction) (rs7222094 TC): -9.5 days
Delta RENSUP.DAF (Days alive and free of renal support) (rs7222094 TC): -9.0 days
Delta RESP.DAF (Days alive and free of respiratory dysfunction) (rs7222094 TC): -7.0 days
Delta VENT.DAF (Days alive and free of mechanical ventilators) (rs7222094 TC): -11.0 days
Delta COAG.DAF (Days alive and free of coagulation dysfunction) (rs7222094 TT): -0.5 days
Delta CVS.DAF (Days alive and free of cardiovascular dysfunction) (rs7222094 TT): 1.0 days
Delta DA (Days alive) (rs7222094 TT): 0.0 days
Delta INR.DAF (Days alive and free of international normalized ratio >1.5) (rs7222094 TT): 0.0 days
Delta LIVER.DAF (Days alive and free of any type of hepatic dysfunction) (rs7222094 TT): 0.0 days
Delta PRESS.DAF (Days alive and free of any vasopressors) (rs7222094 TT): -2.0 days
Delta RENAL.DAF (Days alive and free of any type of renal dysfunction) (rs7222094 TT): -5.5 days
Delta RENSUP.DAF (Days alive and free of renal support) (rs7222094 TT): 0.0 days
Delta RESP.DAF (Days alive and free of respiratory dysfunction) (rs7222094 TT): -2.0 days
Delta VENT.DAF (Days alive and free of mechanical ventilators) (rs7222094 TT): -2.0 days
